Measured values published in patent US8802663B2, “Pyrazole oxadiazole derivatives as S1P1 agonists” (Merck Serono SA, priority 2009, dated 2014).
Where a name gives a salt, the structure may show the parent alone.

Target: S1P1 (Homo sapiens (Human), UniProt P21453)
Experiment: 35S-GTPγS binding, membranes from CHO cells expressing S1P1
Format: biochemical
Conditions: CHO cell membranes
Protocol: Cells were suspended in 50 mM TRIS, pH 7.4, 2 mM EDTA, 250 mM Sucrose (buffer A) and 1× Complete protease inhibitor cocktail (Roche), and disrupted at 4° C. by N2 decompression using a cell disruption bomb (Parr Instrument). Following centrifugation at 1000 RPM for 10 min at 4° C., the supernatant was suspended in buffer A and centrifuged again at 19000 RPM for 60 min at 4° C. The pellet was then suspended in 10 mM HEPES, pH 7.4, 1 mM EDTA, 250 mM Sucrose (Buffer B), and 1× Complete EDTA-free protease inhibitor cocktail and homogenized using a potter. Membranes were flash frozen in liquid N2 and stored at −80° C. [33P]sphingosine 1-phosphate (3000 Ci/mmol; American Radiolabeled Chemicals, Inc.) was added to test compounds in DMSO. […] Specific binding was calculated by subtracting remaining radioactivity in the presence of 1000-fold excess of unlabeled SIP. Binding data were analyzed using the GraphPad Prism program.
After 60 min incubation at 30° C. on a shaker, plates were centrifuged for 10 min at 2000 RPM. […] Triplicate samples were averaged and expressed as % response relative to S1P activation in absence of compound (n=2).

S1P1, sequence (P21453 whole entry, species assumed): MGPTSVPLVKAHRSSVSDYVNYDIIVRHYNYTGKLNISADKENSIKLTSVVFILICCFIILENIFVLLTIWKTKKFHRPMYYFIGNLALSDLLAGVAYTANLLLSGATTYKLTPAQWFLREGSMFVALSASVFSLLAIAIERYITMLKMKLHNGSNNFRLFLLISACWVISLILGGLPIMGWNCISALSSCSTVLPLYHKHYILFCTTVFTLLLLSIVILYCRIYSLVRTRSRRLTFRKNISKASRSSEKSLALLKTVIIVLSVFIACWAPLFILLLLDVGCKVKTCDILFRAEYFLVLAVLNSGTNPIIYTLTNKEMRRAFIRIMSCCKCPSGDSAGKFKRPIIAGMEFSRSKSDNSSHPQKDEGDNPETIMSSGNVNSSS

SMILES | EC50
Cc1c(-c2nc(-c3cc(F)ccc3F)no2)cnn1C1CCCCC1 [Example 86, 5-(1-cyclohexyl-5-methyl-1H-pyrazol-4-yl)-3-(2,5-difluorophenyl)-1,2,4-oxadiazole] | 306 nM
FC(F)(F)c1cccc(-c2noc(-c3cnn(C4CCCCC4)c3C3CCOCC3)n2)c1 [Example 87, 5-(1-cyclohexyl-5-(tetrahydro-2H-pyran-4-yl)-1H-pyrazol-4-yl)-3-(3-(trifluoromethyl)phenyl)-1,2,4-oxadiazole] | 361 nM
Brc1ccc(-c2noc(-c3cnn(C4CCCCC4)c3-c3ccncc3)n2)cc1 [Example 92, 3-(4-bromophenyl)-5-(1-cyclohexyl-5-(pyridin-4-yl)-1H-pyrazol-4-yl)-1,2,4-oxadiazole] | 158 nM
CC(C)(C)Cn1ncc(-c2nc(-c3cc(F)ccc3F)no2)c1-c1ccncc1 [Example 93, 3-(2,5-difluorophenyl)-5-(1-neopentyl-5-(pyridin-4-yl)-1H-pyrazol-4-yl)-1,2,4-oxadiazole] | 301 nM
OCc1ccc(-c2noc(-c3cnn(CC4CC4)c3-c3ccncc3)n2)cc1 [Example 94, (4-(5-(1-(cyclopropylmethyl)-5-(pyridin-4-yl)-1H-pyrazol-4-yl)-1,2,4-oxadiazol-3-yl)phenyl)methanol] | 387 nM
c1cc(-c2c(-c3nc(-c4ccc5nccn5c4)no3)cnn2C2CCCCC2)ccn1 [Example 95, 5-(1-cyclohexyl-5-(pyridin-4-yl)-1H-pyrazol-4-yl)-3-(imidazo[1,2-a]pyridin-6-yl)-1,2,4-oxadiazole] | 96 nM
Fc1ccc(F)c(-c2noc(-c3cnn(CCc4ccccc4)c3-c3ccncc3)n2)c1 [Example 99, 3-(2,5-difluorophenyl)-5-(1-phenethyl-5-(pyridin-4-yl)-1H-pyrazol-4-yl)-1,2,4-oxadiazole] | 496 nM
CC(C)(C)Cn1ncc(-c2nc(-c3ccc(CO)cc3)no2)c1-c1ccncc1 [Example 100, (4-(5-(1-neopentyl-5-(pyridin-4-yl)-1H-pyrazol-4-yl)-1,2,4-oxadiazol-3-yl)phenyl)methanol] | 377 nM
CNCc1ccc(-c2noc(-c3cnn(CC(C)(C)C)c3-c3ccncc3)n2)cc1 [Example 104, N-methyl-1-(4-(5-(1-neopentyl-5-(pyridin-4-yl)-1H-pyrazol-4-yl)-1,2,4-oxadiazol-3-yl)phenyl)methanamine] | 314 nM
CNCc1ccc(-c2noc(-c3cnn(CCc4ccccc4)c3-c3ccncc3)n2)cc1 [Example 106, N-methyl-1-(4-(5-(1-phenethyl-5-(pyridin-4-yl)-1H-pyrazol-4-yl)-1,2,4-oxadiazol-3-yl)phenyl)methanamine] | 458 nM
COCCc1c(-c2nc(-c3cccc(C(F)(F)F)c3)no2)cnn1C1CCCCC1 [Example 108, 5-(1-cyclohexyl-5-(2-methoxyethyl)-1H-pyrazol-4-yl)-3-(3-(trifluoromethyl)phenyl)-1,2,4-oxadiazole] | 102 nM
COCc1c(-c2nc(-c3ccc(CCO)cc3)no2)cnn1C1CCCCC1 [Example 109, 2-(4-(5-(1-cyclohexyl-5-(methoxymethyl)-1H-pyrazol-4-yl)-1,2,4-oxadiazol-3-yl)phenyl)ethanol] | 312 nM
COCCc1c(-c2nc(-c3ccc(CO)cc3)no2)cnn1C1CCCCC1 [Example 115, (4-(5-(1-cyclohexyl-5-(2-methoxyethyl)-1H-pyrazol-4-yl)-1,2,4-oxadiazol-3-yl)phenyl)methanol] | 134 nM
COCc1c(-c2nc(-c3ccc4c(c3)CN(CCC(=O)O)CC4)no2)cnn1C1CCCCC1 [Example 118, 3-(7-(5-(1-cyclohexyl-5-(methoxymethyl)-1H-pyrazol-4-yl)-1,2,4-oxadiazol-3-yl)-3,4-dihydroisoquinolin-2(1H)-yl)propanoic acid] | 398 nM
COCc1c(-c2nc(-c3ccc(CNCC(O)CO)cc3)no2)cnn1C1CCCCC1 (stereo not drawn) [Example 122, 3-(4-(5-(1-cyclohexyl-5-(methoxymethyl)-1H-pyrazol-4-yl)-1,2,4-oxadiazol-3-yl)benzylamino)propane-1,2-diol] | 157 nM

Further lines, results first:

EC50 | SMILES
47 nM | CNCc1ccc(-c2noc(-c3cnn(C4CCCCC4)c3C3CCOCC3)n2)cc1 [Example 88, 1-(4-(5-(1-cyclohexyl-5-(tetrahydro-2H-pyran-4-yl)-1H-pyrazol-4-yl)-1,2,4-oxadiazol-3-yl)phenyl)-N-methylmethanamine]
35 nM | CC(C)(C)Cn1ncc(-c2nc(-c3cccc(C(F)(F)F)c3)no2)c1-c1ccncc1 [Example 90, 5-(1-neopentyl-5-(pyridin-4-yl)-1H-pyrazol-4-yl)-3-(3-(trifluoromethyl)phenyl)-1,2,4-oxadiazole]
35 nM | COCCc1c(-c2nc(-c3cc(F)ccc3F)no2)cnn1C1CCCCC1 [Example 103, 5-(1-cyclohexyl-5-(2-methoxyethyl)-1H-pyrazol-4-yl)-3-(2,5-difluorophenyl)-1,2,4-oxadiazole]
45 nM | COCc1c(-c2nc(-c3ccc(Cn4cncn4)cc3)no2)cnn1C1CCCCC1 [Example 107, 3-(4-((1H-1,2,4-triazol-1-yl)methyl)phenyl)-5-(1-cyclohexyl-5-(methoxymethyl)-1H-pyrazol-4-yl)-1,2,4-oxadiazole]
40 nM | O=C(O)C1CN(Cc2ccc(-c3noc(-c4cnn(CCc5ccccc5)c4-c4ccncc4)n3)cc2)C1 [Example 110, 1-(4-(5-(1-phenethyl-5-(pyridin-4-yl)-1H-pyrazol-4-yl)-1,2,4-oxadiazol-3-yl)benzyl)azetidine-3-carboxylic acid, formate]
29 nM | COCCc1c(-c2nc(-c3ccc(Cn4cncn4)cc3)no2)cnn1C1CCCCC1 [Example 111, 3-(4-((1H-1,2,4-triazol-1-yl)methyl)phenyl)-5-(1-cyclohexyl-5-(2-methoxyethyl)-1H-pyrazol-4-yl)-1,2,4-oxadiazole]
94 nM | CCOc1c(-c2nc(-c3cc(F)ccc3F)no2)cnn1-c1ccccc1C [Example 112, 3-(2,5-difluorophenyl)-5-(5-ethoxy-1-o-tolyl-1H-pyrazol-4-yl)-1,2,4-oxadiazole]
24 nM | FC(F)(F)c1cccc(-c2noc(-c3cnn(CC4CC4)c3-c3ccncc3)n2)c1 [Example 113, 5-(1-(cyclopropylmethyl)-5-(pyridin-4-yl)-1H-pyrazol-4-yl)-3-(3-(trifluoromethyl)phenyl)-1,2,4-oxadiazole]
94 nM | COCc1c(-c2nc(-c3ccc(Cn4cccn4)cc3)no2)cnn1C1CCCCC1 [Example 114, 3-(4-((1H-pyrazol-1-yl)methyl)phenyl)-5-(1-cyclohexyl-5-(methoxymethyl)-1H-pyrazol-4-yl)-1,2,4-oxadiazole]
86 nM | COCc1c(-c2nc(-c3ccc4c(c3)CCNC4)no2)cnn1C1CCCCC1 [Example 116, 5-(1-cyclohexyl-5-(methoxymethyl)-1H-pyrazol-4-yl)-3-(1,2,3,4-tetrahydroisoquinolin-6-yl)-1,2,4-oxadiazole]
66 nM | COCc1c(-c2nc(-c3ccc(Cn4ccnc4)cc3)no2)cnn1C1CCCCC1 [Example 119, 3-(4-((1H-imidazol-1-yl)methyl)phenyl)-5-(1-cyclohexyl-5-(methoxymethyl)-1H-pyrazol-4-yl)-1,2,4-oxadiazole]
40 nM | COCc1c(-c2nc(-c3ccc(CNC(C)C)cc3)no2)cnn1C1CCCCC1 [Example 121, N-(4-(5-(1-cyclohexyl-5-(methoxymethyl)-1H-pyrazol-4-yl)-1,2,4-oxadiazol-3-yl)benzyl)propan-2-amine]
